From US9346811B2, “6,7-dihydro-pyrazolo[1,5-a]pyrazin-4-ylamine derivatives useful as inhibitors of beta-secretase (BACE)” (JANSSEN PHARMACEUTICA NV, priority 2011, dated 2016)
Counter-ions that a name gives are not always drawn. Like-named read-outs stand apart in the source and are kept apart here.

Experiments:
[1] = tested on: Aβ42 produced and secreted into the medium of human neuroblastoma SKNBE2 cells; experiment: Cellular αlisa assay in SKNBE2 cells, Aβ42; format: cell-based; settings: for IC50: Homo sapiens, SKNBE2, 18 h, read-out: Cellular αlisa assay in SKNBE2 cells Aβ42 pIC50 (converted)
Procedure: (§1) Cellular αlisa Assay in SKNBE2 Cells
(§2) In two αlisa assays the levels of Aβtotal and Aβ42 produced and secreted into the medium of human neuroblastoma SKNBE2 cells are quantified. The assay is based on the human neuroblastoma SKNBE2 expressing the wild type Amyloid Precursor Protein (hAPP695). The compounds are diluted and added to these cells, incubated for 18 hours and then measurements of Aβ42 and Aβtotal are taken. Aβtotal and Aβ42 are measured by sandwich αlisa. αlisa is a sandwich assay using biotinylated antibody AbN/25 attached to streptavidin coated beads and antibody Ab4G8 or cAb42/26 conjugated acceptor beads for the detection of Aβtotal and Aβ42 respectively. In the presence of Aβtotal or Aβ42, the beads come into close proximity. The excitation of the Donor beads provokes the release of singlet oxygen molecules that triggers a cascade of energy transfer in the Acceptor beads, resulting in light emission. Light emission is measured after 1 hour incubation (excitation at […] and emission at 615 nm).
(§3) A best-fit curve is fitted by a minimum sum of squares method to the plot of % Controlmin versus compound concentration.

[2] = tested on: Aβtotal produced and secreted into the medium of human neuroblastoma SKNBE2 cells; experiment: Cellular αlisa assay in SKNBE2 cells, Aβtotal; format: cell-based; settings: for IC50: Homo sapiens, SKNBE2, 18 h, read-out: Cellular αlisa assay in SKNBE2 cells Aβtotal pIC50 (converted)
Procedure: as §1, §2, §3

[3] = target: recombinant BACE1 protein (Homo sapiens, UniProt P56817); experiment: Biochemical FRET based assay; settings: recombinant BACE1 1 μg/ml, 120 min, pH 5.0; for IC50: read-out: Biochemical FRET based assay pIC50 (converted)
Text: Biochemical FRET Based Assay
This assay is a Fluorescence Resonance Energy Transfer Assay (FRET) based assay. The substrate for this assay is an APP derived 13 amino acids peptide that contains the ‘Swedish’ Lys-Met/Asn-Leu mutation of the amyloid precursor protein (APP) β-secretase cleavage site. This substrate also contains two fluorophores: (7-methoxycoumarin-4-yl)acetic acid (Mca) is a fluorescent donor with excitation wavelength at 320 nm and emission at 405 nm and 2,4-Dinitrophenyl (Dnp) is a proprietary quencher acceptor. […] Upon cleavage by BACE1, the fluorophore Mca is separated from the quenching group Dnp, restoring the full fluorescence yield of the donor. The increase in fluorescence is linearly related to the rate of proteolysis (Koike H et al. J. Biochem. 1999, 126, 235-242). Briefly in a 384-well format recombinant BACE1 protein in a final concentration of 1 μg/ml is incubated for 120 min at room temperature with 10 μm substrate in incubation buffer (40 mM Citrate buffer pH 5.0, 0.04% PEG, 4% DMSO) in the absence or presence of compound. Next the amount of proteolysis is directly measured by fluorescence measurement at T=0 and T=120 (excitation at 320 nm and emission at 405 nm).

[4] = SKNBE2 cells expressing hAPP695, 18 hours incubation

recombinant BACE1 protein, sequence (P56817 46-501): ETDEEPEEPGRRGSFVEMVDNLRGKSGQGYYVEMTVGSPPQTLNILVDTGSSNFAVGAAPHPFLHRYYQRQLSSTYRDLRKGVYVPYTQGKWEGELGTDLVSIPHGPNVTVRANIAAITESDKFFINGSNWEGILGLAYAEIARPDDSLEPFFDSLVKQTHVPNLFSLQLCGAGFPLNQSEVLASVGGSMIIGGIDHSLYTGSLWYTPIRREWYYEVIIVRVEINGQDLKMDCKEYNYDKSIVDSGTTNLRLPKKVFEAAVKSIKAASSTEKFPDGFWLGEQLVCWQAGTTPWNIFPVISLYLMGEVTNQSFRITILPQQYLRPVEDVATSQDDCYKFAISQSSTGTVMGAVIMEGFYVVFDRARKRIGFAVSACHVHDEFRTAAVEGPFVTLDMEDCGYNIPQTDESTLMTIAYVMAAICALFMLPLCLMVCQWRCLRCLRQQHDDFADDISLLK

SMILES | Cellular αlisa assay in SKNBE2 cells Aβ42 pIC50 [1, 4] | Cellular αlisa assay in SKNBE2 cells Aβtotal pIC50 [2, 4] | IC50 [3] | Biochemical FRET based assay pIC50 [3] | IC50 [1, 4] | IC50 [2, 4] | IC50 [1] | IC50 [2]
NC1=NC(c2cc(NC(=O)c3ccc(F)cn3)ccc2F)(C(F)F)Cn2nccc21 (single isomer, unassigned) [Compound 21, (S*)-5-fluoro-pyridine-2-carboxylic acid [3-(4-amino-6-difluoromethyl-6,7-dihydro-pyrazolo[1,5-a]pyrazin-6-yl)-4-fluoro-phenyl]-amide] | <5 | <5 | > 30200 nM |  |  |  |  | 
COc1cnc(C(=O)Nc2cccc(C3(C)Cn4nc(C(F)(F)F)cc4C(N)=N3)c2)cn1 (single isomer, unassigned) [Compound 31] | 5.58 | 5.61 |  | 4.97 |  |  |  | 
CC1(c2cccc(NC(=O)c3ncc(Cl)cc3Cl)c2)Cn2nc(C(F)(F)F)cc2C(N)=N1 (racemic) [Compound 10, rac-3,5-dichloro-pyridine-2-carboxylic acid [3-(4-amino-6-methyl-2-trifluoromethyl-6,7-dihydro-pyrazolo[1,5-a]pyrazin-6-yl)-phenyl]-amide] |  |  | 63.1 nM |  | 16.6 nM | 15.5 nM |  | 
COc1cnc(C(=O)Nc2cccc(C3(C)Cn4nc(C(F)(F)F)cc4C(N)=N3)c2)cn1 (racemic) [Compound 30] | 7.43 | 7.45 |  | 6.77 |  |  |  | 
COc1cnc(C(=O)Nc2ccc(F)c([C@]3(C)Cn4ncc(F)c4C(N)=N3)c2)cn1 [Compound 13, (R)-5-methoxy-pyrazine-2-carboxylic acid [3-(4-amino-3-fluoro-6-methyl-6,7-dihydro-pyrazolo[1,5-a]pyrazin-6-yl)-4-fluoro-phenyl]-amide] |  |  | 72.4 nM |  | 6.76 nM | 5.5 nM |  | 
CC1(c2cc(NC(=O)c3ccn(C(F)F)n3)ccc2F)Cn2nc(C(F)F)cc2C(N)=N1 (stereo not drawn) [Compound 40] | 8.42 | 8.37 |  | 7.28 |  |  |  | 
NC1=NC(c2cc(NC(=O)c3ccc(F)cn3)ccc2F)(C(F)F)Cn2nccc21 (single isomer, unassigned) [Compound 22, (R*)-5-fluoro-pyridine-2-carboxylic acid [3-(4-amino-6-difluoromethyl-6,7-dihydro-pyrazolo[1,5-a]pyrazin-6-yl)-4-fluoro-phenyl]-amide] | 7.17 | 7.21 | 25.7 nM |  |  |  |  | 
CC1(c2cc(NC(=O)c3ncc(Cl)cc3Cl)ccc2F)Cn2nccc2C(N)=N1 (single isomer, unassigned) [Compound 16, (S*)-3,5-dichloro-pyridine-2-carboxylic acid [3-(4-amino-6-methyl-6,7-dihydro-pyrazolo[1,5-a]pyrazin-6-yl)-4-fluoro-phenyl]-amide] | 7.66 | 7.74 | 1050 nM |  |  |  |  | 
CC1(c2cc(NC(=O)c3ccc(F)cn3)ccc2F)Cn2ncc(Cl)c2C(N)=N1 (stereo not drawn) [Compound 38] | 6.16 | 6.22 |  | 6.03 |  |  |  | 
NC1=NC(c2cc(NC(=O)c3ccc(F)cn3)ccc2F)(C(F)F)Cn2nccc21 (racemic) [Compound 20, rac-5-fluoro-pyridine-2-carboxylic acid [3-(4-amino-6-difluoromethyl-6,7-dihydro-pyrazolo[1,5-a]pyrazin-6-yl)-4-fluoro-phenyl]-amide] |  |  | 66.1 nM |  | 85.1 nM | 66.1 nM |  | 
COc1cnc(C(=O)Nc2ccc(F)c(C3(C(F)F)Cn4nccc4C(N)=N3)c2)cn1 (racemic) [Compound 17, rac-5-methoxy-pyrazine-2-carboxylic acid [3-(4-amino-6-difluoromethyl-6,7-dihydro-pyrazolo[1,5-a]pyrazin-6-yl)-4-fluoro-phenyl]-amide] |  |  | 57.5 nM |  | 39.8 nM | 33.1 nM |  | 
CC1(c2cc(NC(=O)c3ncc(Cl)cc3Cl)ccc2F)Cn2nccc2C(N)=N1 (single isomer, unassigned) [Compound 15, (R*)-3,5-dichloro-pyridine-2-carboxylic acid [3-(4-amino-6-methyl-6,7-dihydro-pyrazolo[1,5-a]pyrazin-6-yl)-4-fluoro-phenyl]-amide] | 9.33 | 9.37 | 18.6 nM |  |  |  |  | 
CC1(c2cc(NC(=O)c3ccc(Cl)cn3)ccc2F)Cn2nc(C(F)F)cc2C(N)=N1 (stereo not drawn) [Compound 39] | 8.61 | 8.59 |  | 7.39 |  |  |  | 
C[C@@]1(c2cccc(-c3cncc(Cl)c3)c2)Cn2nccc2C(N)=N1 [Compound 1, (R)-6-[3-(5-chloro-pyridin-3-yl)-phenyl]-6-methyl-6,7-dihydro-pyrazolo[1,5-a]pyrazin-4-ylamine trifluoroacetate salt] |  |  | 525 nM |  |  |  | 93.3 nM | 100 nM
